Experimental findings from patent US9476030B2, “Self-renewing endodermal progenitor lines generated from human pluripotent stem cells and methods of use thereof” (The Children's Hospital of Philadelphia, priority 2011, dated 2016) are described below.

What all share (assay type): cell-based, human
Assay [1] has as its system H9-EP cells. Description: EP cell maintenance: cell number / cell growth under various media conditions. To be noted: for proliferation of EP cells (total cell number after 7-day expansion): FIG. 4B. The procedure:
(§1) FIG. 4. Cytokine Requirements and Critical Signaling Pathways for EP Cell Maintenance and Differentiation. […] In each condition, one of the four cytokines was omitted or inhibitors of signaling pathways were added. The H9-EP cell line was grown for 1 week in optimal EP Basic Media (BASIC) or in the absence of BMP4, or bFGF or VEGF. (A) Flow cytometric analyses of SOX17 versus PDX1, or SOX17 versus FOXA1 are shown. […] (C-D) To evaluate the role of TGF signaling in EP cell maintenance and differentiation, the small molecule inhibitor SB431542 was added to EP media. (C) H9-EP cells were cultured in normal EP media (BASIC) or in EP media supplemented with SB431542 (6 M) either in the presence (+SB) or the absence of BMP4 (−BMP+SB). Cells were harvested at day 6. Flow cytometric analyses of SOX17 versus FOXA1 are shown. (D) H9-EP cells were cultured in the presence (SB, red circles) or the absence (BASIC, blue squares) of SB431542 for 3 passages and cell growth analyzed by cell counts at each passage. […] Cells were harvested at day 14 of differentiation, and were compared to those derived from SB-untreated group (BASIC). Flow cytometric analyses of C-peptide versus Glucagon are shown.
Cells were fed every two days, and were split at 1×10^6/58 cm^2 every 6 days by trypsinization. The small molecule inhibitors PD0325901 (Sebolt-Leopold et al., 2004; Ying et al., 2008), PD173074 (Mohammadi et al., 1998) and SB431542 (Laping et al, 2002; Inman et al., 2002) were purchased from Cayman Chemicals and Stemgent, respectively.

The subject of assay [2] is H9-EP cells. Description: Flow cytometric analysis of SOX17 / PDX1 / FOXA1 in EP cells under various media conditions. Also noted: SOX17 expression in EP cells: dose or concentration left out as unconfirmed. The procedure: as §1
Single cell suspensions were obtained by dissociating day 5 transient endoderm, EP cell cultures, or EP cell differentiation cultures with 0.25% trypsin at 37° C. for 3-5 minutes. Cell surface antigen staining was performed in IMDM with 10% fetal calf serum. For intracellular staining, cells were fixed with 1.6% paraformaldehyde (Electron Microscopy Sciences) at 37 C for 20 minutes, and then washed twice with PBS+1% BSA. The fixed cells were permeabilized and stained in 1× Permeabilization Wash Buffer (BioLegend, 421002). The stained cells were analyzed with the BD FACS Canto II Flow Cytometer (BD Biosciences), and the data was analyzed using the Flowjo software (TreeStar). The sources and concentrations of primary, secondary antibodies and isotype controls are listed below.

The next assay has as its system H9-EP and iPS2-EP cells. Description: Pancreatic differentiation of EP cells after culture with SB431542. The conditions noted are these: EP cells cultured with SB431542 for 5 days, then differentiated, day 14, FIG. 4E. The protocol: FIG. 4. Cytokine Requirements and Critical Signaling Pathways for EP Cell Maintenance and Differentiation. […] In each condition, one of the four cytokines was omitted or inhibitors of signaling pathways were added. The H9-EP cell line was grown for 1 week in optimal EP Basic Media (BASIC) or in the absence of BMP4, or bFGF or VEGF. (A) Flow cytometric analyses of SOX17 versus PDX1, or SOX17 versus FOXA1 are shown. […] (C-D) To evaluate the role of TGF signaling in EP cell maintenance and differentiation, the small molecule inhibitor SB431542 was added to EP media. […] Cells were harvested at day 6. Flow cytometric analyses of SOX17 versus FOXA1 are shown. […] Cells were harvested at day 14 of differentiation, and were compared to those derived from SB-untreated group (BASIC). Flow cytometric analyses of C-peptide versus Glucagon are shown. […] (2011), was modified by omitting the first step, and by adding-secretase inhibitor X (Calbiochem, 2 M) from day 8 to day 12 of differentiation, as well as by adding human insulin (Sigma, 800 pM) and nicotinamide (Sigma, 10 mM) from day 10 and onwards. […] Mouse Wnt3a was supplemented to the step 2 media at 3 ng/ml. From day 10 and onwards, the medium was alternated every day between high dextrose (60 mM) and low dextrose (20 mM). […] Insulin secretion was calculated based on the total cell number and the percentage of c-peptide+ cells of each experiment. […]

Where [3] appears, read: inhibitor of FGF/Ras/MEK pathway added to EP media.
Setting [4] is: withdrawal of the cytokine, within one week, FIG. 4A.
[5] abbreviates: withdrawal of the cytokine from EP basic media.

`CCN(CC)CCCCNc1ncc2cc(-c3cc(OC)cc(OC)c3)c(NC(=O)NC(C)(C)C)nc2n1` [PD173074]: the “proliferation of EP cells (total cell number after 7-day expansion)” value with H9-EP cells [1] (setting [3]) is “reduced proliferation dramatically”.
The same measure, in the same setting: then `O=C(NOC[C@H](O)CO)c1ccc(F)c(F)c1Nc1ccc(I)cc1F` [PD0325901], with “reduced proliferation dramatically”.
`NC(=O)c1ccc(-c2nc(-c3ccc4c(c3)OCO4)c(-c3ccccn3)[nH]2)cc1` [SB431542]: in the assay with H9-EP cells [2] (EP media supplemented with SB431542, harvested at day 6, FIG. 4C), the “SOX17 expression in EP cells” value is “completely abolished SOX17 expression”. Besides, the “proliferation of EP cells (relative cell growth over 3 passages)” value with H9-EP cells [1] (SB431542 added to EP media, FIG. 4D) was “drastically suppressed proliferation”. Besides, the “differentiation of EP cells into pancreatic β-cells” value with H9-EP and iPS2-EP cells was “inhibited differentiation into pancreatic β-cells”.
In the case of “BMP4: human cytokine in EP basic medium (50 ng/ml)”, in the assay on H9-EP cells [2] (setting [4]), the “PDX1 expression in EP cells” value is listed as “up-regulation of PDX1” and the “SOX17 expression in EP cells” value is recorded as “almost complete loss of SOX17 expression”.
Regarding “EGF: human cytokine in EP basic medium (10 ng/ml) (NSDSECPLSHDGYCLHDGVCMYIEALDKYACNCVVGYIGERCQYRDLKWWELR; UniProt P01133 971-1023, looked up)”, the “proliferation of EP cells (total cell number after 7-day expansion)” value in the assay on H9-EP cells [1] (setting [5]) was “significant decrease in proliferation”.
The same measure, in the same setting: next, VEGF: “significant decrease in proliferation”; “bFGF: human cytokine in EP basic medium (10 ng/ml)”: “reduced proliferation dramatically”.
